pIC50: −log10 of the molar value. Like-named read-outs stand apart in the source and are kept apart here.
Columns and labels:
BACE1 [1] = molecular target: T1, BACE1 (Homo sapiens (Human), UniProt P56817); assay: BACE1 AlphaScreen assay (displacement of biotinylated BACE1 binding site probe); conditions: read-out: BACE1 AS IC50
Experimental: (§1) BACE1 activity can be assessed in an AlphaScreen® assay. Compounds to be assessed (e.g. compounds as described in the above examples) are serially diluted 1:4 in DMSO, then plated by diluting 10 μL of compound with 40 μl of assay buffer (1×PBS, 0.01% Tween-20, pH 7.0, 0.05% BSA). The diluted compound is transferred (4 μL per well) to a 386 well assay plate and 4 μL of BACE1 enzyme ([…]) is added and incubated for 15 minutes. This assay uses a probe that is a BACE1 binding sight ligand linked to biotin, which can be displaced by test compound dependent on compound binding affinity. This of biotinylated probe (4 μL) is added and incubated for 1 hour, followed with 4 μL of donor and acceptor bead mixture and incubated for 2 hours. The fluorescent signal is read on a plate reader and the value as a function of compound concentration is used to determine the IC50. Compounds are also assessed for BACE1 and Cathepsin D activity using an FP Assay. Compounds to be assessed (e.g. compounds as described in the above examples) are serially diluted 1:3 with DMSO and each concentration point is transferred to a 96 well plate, 6 μL per well, followed by addition of 194 μL of assay buffer (100 mM sodium acetate, pH 4.5 with 0.001% Tween-20). A 10 μL compound sample from this plate is transferred to a well of a 384 well plate and combined with 10 μL per well of BACE1 enzyme (0.3 nM in assay buffer) or Cathepsin D enzyme (1.8 nM in assay buffer) and the plate is incubated at room temperature for 30 minutes.

BACE1 [2] = molecular target: T1, BACE1; assay: BACE1 FP assay; format: biochemical; conditions: pH 4.5
Experimental: as §1

[3] = system: BACE1 inhibition in HEKp293 cells transfected with APP751 gene (SWE293); assay: SWE293 cellular assay: reduction of Aβ peptide production, ELISA; format: cell-based; conditions: Homo sapiens, read-out: SWE293 ED50
Experimental: BACE1 inhibition is also assessed in a cellular assay. HEKp293 cells transfected with APP751 gene (SWE293, American Type Culture Collection CRL-1563) are used to assess compounds for reduction in levels of Aβ peptide production. SWE293 cell medium is DMEM supplemented with 10% fetal bovine serum and 2 mM L-glutamine, 1.0 mM sodium pyruvate, 25 mM Hepes Buffer, 0.4 mg/mL geneticin (G418, Gibco BRL 860-181IIJ). Cells are maintained diluting 1:10 for 4 days in T-150 flask and 35 mL of cell media. For plating, cells are rinsed with 5 mL of 1×PBS, trypsinized with 4 mL of 0.05% Tripsin for 1 minute, and 12 mL of cell media is added. These are centrifuged at 1000 rpm for 4 minutes and the media aspirated, then 8 mL of media per flask is added. Based on cell count, appropriate amounts of cell and cell media are combined, and 180 μl per well are plated (96 well) and the plates are incubated overnight at 37° C., 5% CO2. Compounds to be tested are serially diluted 1:3 in DMSO and twice in media (without G418) in V-bottom plates and incubated at room temperature. Plated cells are washed with media, 3×50 μL per well and 17 μL per well of appropriate dilution of compound is added. Plates are incubated for 2 hours, and the wash steps, compound addition and incubation are repeated. Sample is transferred to capture plate (prepared with 266 antibody, see e.g. Johnson-Wood et al., PNAS February 1997, 94: 1550-1555), along with a standard curve of Aβ-40. ELISA assay is used to assess Aβ levels, washing with TBS, 0.05% Tween20 pH 7.5, then adding 1.3 mg/mL 3D6 antibody 1:900 in specimen diluents with thimericol is added (100 μl per well) and incubated for 1 hour. Wash step is repeated and Streptavidin-AP diluted 1:1000 in specimen diluents with thimerisol is added (100 μL per well) and incubated for 1 hour. Wash step is repeated and fluorescent substrate is added, 100 μL per well and incubated for 10 minutes followed by reading the fluorescent signal on a plate reader.

Cathepsin D = Cathepsin D (Homo sapiens (Human), UniProt P07339); assay: Cathepsin D FP assay; format: biochemical; conditions: pH 4.5, read-out: CatD FP IC50
Experimental: as §1

[4] = dose at which Aβ level is reduced by 50%, HEKp293 SWE293 cells

T1 sequence (P56817 46-501): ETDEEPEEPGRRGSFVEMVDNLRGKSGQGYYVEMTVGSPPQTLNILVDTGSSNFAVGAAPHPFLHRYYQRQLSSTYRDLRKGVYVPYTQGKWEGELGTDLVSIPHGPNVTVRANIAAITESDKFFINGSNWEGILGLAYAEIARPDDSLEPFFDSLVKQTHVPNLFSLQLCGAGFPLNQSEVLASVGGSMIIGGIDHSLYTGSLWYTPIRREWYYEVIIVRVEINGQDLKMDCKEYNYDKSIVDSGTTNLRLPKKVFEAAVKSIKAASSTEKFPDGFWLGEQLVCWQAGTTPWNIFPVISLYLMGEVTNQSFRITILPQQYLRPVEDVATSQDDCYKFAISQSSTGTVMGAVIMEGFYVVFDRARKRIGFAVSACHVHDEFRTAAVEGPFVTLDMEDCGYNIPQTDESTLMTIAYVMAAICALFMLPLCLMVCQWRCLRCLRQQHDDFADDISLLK
Cathepsin D, sequence (P07339 65-412, species assumed): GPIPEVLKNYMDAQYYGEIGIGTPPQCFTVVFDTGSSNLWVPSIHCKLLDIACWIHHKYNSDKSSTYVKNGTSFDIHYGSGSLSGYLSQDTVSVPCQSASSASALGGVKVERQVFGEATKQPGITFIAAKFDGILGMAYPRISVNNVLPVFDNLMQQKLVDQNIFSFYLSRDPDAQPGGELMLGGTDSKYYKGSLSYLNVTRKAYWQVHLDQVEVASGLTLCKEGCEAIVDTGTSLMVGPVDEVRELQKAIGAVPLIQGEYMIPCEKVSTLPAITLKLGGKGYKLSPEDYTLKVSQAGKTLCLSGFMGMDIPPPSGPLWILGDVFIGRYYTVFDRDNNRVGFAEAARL

Row | Structure (SMILES) | pIC50 (BACE1 [1]) | pIC50 (BACE1 [2]) | pIC50 (Cathepsin D) | pIC50 [3, 4] | pIC50 [3]
1 | C[C@@]1(c2cc(NC(=O)c3ncc(Cl)cc3F)ccc2F)CC2(CCC(F)(F)CC2)OC(N)=N1 [Compound 9-133, (S)—N-(3-(2-amino-9,9-difluoro-4-methyl-1-oxa-3-azaspiro[5.5]undec-2-en-4-yl)-4-fluorophenyl)-5-chloro-3-fluoropicolinamide] | 8.05 | 7.80 | < 4.52 | 7.80 | –
2 | COc1cnc(C(=O)Nc2ccc(F)c([C@]3(C)CC4(CCC4)OC(N)=N3)c2)cn1 [Compound 9-135, (S)—N-(3-(6-amino-8-methyl-5-oxa-7-azaspiro[3.5]non-6-en-8-yl)-4-fluorophenyl)-5-methoxypyrazine-2-carboxamide] | 7.98 | 6.55 | < 4.52 | 7.57 | –
3 | C[C@@]1(c2cc(NC(=O)c3ccc(Br)cn3)ccc2F)CC2(CCC(F)(F)CC2)OC(N)=N1 [Compound 9-136, (S)—N-(3-(2-amino-9,9-difluoro-4-methyl-1-oxa-3-azaspiro[5.5]undec-2-en-4-yl)-4-fluorophenyl)-5-bromopicolinamide] | 8.15 | 7.30 | < 4.52 | – | 8.05
4 | Cc1nc(C(=O)Nc2ccc(F)c([C@]3(C)CC4(CCC4)OC(N)=N3)c2)co1 [Compound 9-138, (S)—N-(3-(6-amino-8-methyl-5-oxa-7-azaspiro[3.5]non-6-en-8-yl)-4-fluorophenyl)-2-methyloxazole-4-carboxamide] | 7.96 | 6.52 | < 4.52 | 7.64 | –
5 | CC1(c2cc(NC(=O)c3ccc(C#N)cn3)ccc2F)CC2(CCOCC2)OC(N)=N1 (centres unmarked) [Compound 9-139, N-(3-(2-amino-4-methyl-1,9-dioxa-3-azaspiro[5.5]undec-2-en-4-yl)-4-fluorophenyl)-5-cyanopicolinamide] | 8.05 | 7.32 | < 4.52 | 8.30 | –
6 | C[C@@]1(c2cc(NC(=O)c3ccc(Cl)cc3)ccc2F)CC2(CCC2)OC(N)=N1 [Compound 9-141, (S)—N-(3-(6-amino-8-methyl-5-oxa-7-azaspiro[3.5]non-6-en-8-yl)-4-fluorophenyl)-4-chlorobenzamide] | 7.76 | 6.08 | < 4.52 | – | 6.96
7 | C[C@]1(c2cc(NC(=O)c3ccc(F)cn3)ccc2F)CC2(CCC2)SC(N)=N1 [Compound 9-143, (R)—N-(3-(6-amino-8-methyl-5-thia-7-azaspiro[3.5]non-6-en-8-yl)-4-fluorophenyl)-5-fluoropicolinamide] | < 5.12 | 4.29 | < 4.52 | 5.21 | –

The next lines start with results.

Row | pIC50 (BACE1 [1]) | pIC50 (BACE1 [2]) | pIC50 (Cathepsin D) | Structure (SMILES) | pIC50 [3, 4] | pIC50 [3]
8 | 8.10 | 7.57 | < 4.52 | C[C@@]1(c2cc(NC(=O)c3ccc(F)cn3)ccc2F)CC2(CCC2)SC(N)=N1 [Compound 9-144, (S)—N-(3-(6-amino-8-methyl-5-thia-7-azaspiro[3.5]non-6-en-8-yl)-4-fluorophenyl)-5-fluoropicolinamide] | 8.05 | –
9 | 8.35 | 8.72 | < 4.52 | C[C@@]1(c2cc(NC(=O)c3ccc(Cl)cn3)ccc2F)CC2(CCC2)SC(N)=N1 [Compound 9-145, (S)—N-(3-(6-amino-8-methyl-5-thia-7-azaspiro[3.5]non-6-en-8-yl)-4-fluorophenyl)-5-chloropicolinamide] | 8.70 | –
10 | 8.01 | 6.92 | < 4.52 | C[C@@]1(c2cc(NC(=O)c3ccc(F)cn3)ccc2F)CC2(COC2)SC(N)=N1 [Compound 9-146, (S)—N-(3-(6-amino-8-methyl-2-oxa-5-thia-7-azaspiro[3.5]non-6-en-8-yl)-4-fluorophenyl)-5-fluoropicolinamide] | 7.66 | –
11 | 8.10 | 7.54 | 4.81 | CC1(c2cc(NC(=O)c3ccc(F)cn3)ccc2F)CC2(CCOCC2)SC(N)=N1 (centres unmarked) [Compound 9-147, N-(3-(2-amino-4-methyl-9-oxa-1-thia-3-azaspiro[5.5]undec-2-en-4-yl)-4-fluorophenyl)-5-fluoropicolinamide] | > 8.40 | –
